Target: T1, Alpha-galactosidase A (Homo sapiens, UniProt P06280)
T1 sequence (P06280 whole entry): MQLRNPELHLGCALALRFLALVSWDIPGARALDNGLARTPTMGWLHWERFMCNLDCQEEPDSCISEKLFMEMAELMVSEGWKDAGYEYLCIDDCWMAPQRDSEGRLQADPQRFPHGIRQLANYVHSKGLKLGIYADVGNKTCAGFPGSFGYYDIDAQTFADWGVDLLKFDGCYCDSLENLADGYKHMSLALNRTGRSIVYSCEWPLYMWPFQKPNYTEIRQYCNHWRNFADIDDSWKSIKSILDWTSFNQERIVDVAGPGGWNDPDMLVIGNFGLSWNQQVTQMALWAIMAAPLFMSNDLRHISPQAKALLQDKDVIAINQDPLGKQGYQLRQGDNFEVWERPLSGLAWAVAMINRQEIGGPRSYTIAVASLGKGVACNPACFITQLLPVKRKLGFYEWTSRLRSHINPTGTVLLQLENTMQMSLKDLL
Test: α-Gal A Assay

Q: How did the IC50 (pH 5) turn out when `OC[C@@H]1[C@H](O)[C@H](O)[C@@H](O)CN1C(=S)NCc1ccccc1` [DGJ-BnT] was run?
A: The IC50 was 20300 nM.

Q: What about the IC50 (pH 7) of the same compound?
A: Its IC50 is 4410 nM.

Q: Which IC50 (pH 5) does the source give for `OC[C@@H]1[C@H](O)[C@H](O)[C@@H](O)CN1C(=S)Nc1cccc2ccccc12` [DGJ-NphT] here?
A: Its IC50 is 1600 nM.

Q: And the IC50 (pH 7)?
A: Its IC50 is 370 nM.

Q: With `OC[C@@H]1[C@H](O)[C@H](O)[C@@H](O)CN1C(=S)Nc1ccc(F)cc1` [DGJ-pF PhT] as the compound, how does the IC50 (pH 5) read?
A: Its IC50 is 340 nM.

Q: What about the IC50 (pH 7) of the same compound?
A: The IC50 was 43 nM.

Q: What does the source list for `COc1ccc(NC(=S)N2C[C@H](O)[C@@H](O)[C@@H](O)[C@H]2CO)cc1` [DGJ-pMe OPhT]?
A: IC50 (pH 5): 74 nM; IC50 (pH 7): 16 nM

Q: How did the IC50 (pH 5) turn out when `CSc1ccc(NC(=S)N2C[C@H](O)[C@@H](O)[C@@H](O)[C@H]2CO)cc1` [DGJ-pMe SPhT] was run?
A: Its IC50 is 8.3 nM.

Q: What about the IC50 (pH 7) of the same compound?
A: Its IC50 is 1.4 nM.

Q: Which IC50 (pH 5) does the source give for `O[C@@H]1[C@@H](O)CN2/C(=N\c3ccc(F)cc3)SCC2[C@@H]1O` (some centres not stated) [pF PhIM-DGJ] here?
A: Its IC50 is 9670 nM.

Q: What about the IC50 (pH 7) of the same compound?
A: Its IC50 is 2180 nM.
